# According to patent US20190269666A1, “COMBINATION THERAPY WITH MERESTINIB AND ANTI-PD-L1 OR ANTI-PD-1 INHIBITORS FOR USE IN THE TREATMENT OF CANCER” (Eli Lilly and Company, priority 2016, published 2019):
# Tested on: 80-murine immune gene panel (mRNA expression) in CT26 tumors
# Assay: Immuno-landscape analysis, QuantiGene mu-80 immune gene panel on CT26 tumors
# Assay type: in vivo, mouse
# Conditions: for Log2 (difference to vehicle control): CT26 tumors, Day 20
# Method: Frozen tumor fragments of the samples collected on study Day 20 from 5 animals from each treatment arm (study S010516) are analyzed for gene expression of 80 markers using the Quantigene murine-80 panel (mu-80 immune panel #21681). Total RNA was isolated from lysed samples using the MAGMAX™ 96 Total RNA isolation kit (Life Technologies). Snap-frozen tumor fragments are lysed by adding 500 μL, of prepared lysis/binding buffer (MAGMAX™ 96 Total RNA isolation kit) with a single stainless steel bead (5 mm) and then homogenized on a TissueLyser (Qiagen) for 2 minutes at 25 Hz. 200 μL of lysate, along with 120 μL of 100% isopropanol and 40 μL of prepared magnetic beads mix are then transferred to a 96 deep well processing plate. A series of washes and a DNase incubation step are processed on the MAGMAX™ Express-96 Deep Well Magnetic Particle Processor (Life Technologies). RNA is eluted from the magnetic beads with […] of elution buffer after a final wash step. RNA concentration is determined spectrophotometrically to determine optical density at 260 and 280 nm and is then diluted to the final concentration of 25 ng/μl. Tissue expression of immune related genes is then measured using a QuantiGene® 2.0 Plex assay (Affymetrix) with a custom probe set (mu-80 immune panel #21681, Table 6). Four house-keeping-genes (HKG: Gusb, Hprt1, Ppib, Rps18) are used to normalize the gene expression data. Data are normalized and curated using the Genepattern script v28.8. Statistics and bioinformatics are used to analyze the data.
# Five hundred ng of total RNA from samples being analyzed is added in duplicate to individual wells of a 96-well hybridization plate containing QuantiGene® magnetic capture beads, QuantiGene® probeset #21681, and QuantiGene® blocking reagent for a final volume of 100 μL. The hybridization plate is then sealed and incubated at 54° C. while agitated at 600 rpm for 16 hours. Samples are then transferred to a 96-well assay plate and beads are then sequentially hybridized first with 100 μl of QuantiGene® Pre-Amplifier Probe, then with QuantiGene® Amplifier Probe, and finally with QuantiGene® Label Probe (1 hour at 50° C. for each step, with 2-3 washes between each step using a magnetic capture plate). Streptavidin-conjugated R-Phycoerythrin (SAPE, Affymetrix) is added after the last hybridization step and incubated for 30 minutes at room temperature with agitation at 600 rpm. Samples are then analyzed on the FLEXMAP 3D® Luminex instrument (Luminex Corp). Beads (mRNA target) are identified with a red laser while the level of RNA is determined by measuring the mean fluorescence intensity (MFI) of Phycoerythrin with a green laser. Raw MFI data are then converted into relative gene expression for each gene (Normalized Adjusted Net MFI, background subtracted and normalized to 4 housekeeping genes), using a quality control analysis script with GenePattern (Broad Institute). […] Next, the lower limit of detection (LLOD) is determined (average background MFI+3 standard deviation (SD)). […] Relative gene expression is then calculated by normalizing for each gene's adjusted net MFI to the geometric mean of the MFI of selected housekeeping genes (HKG) including Hprt1, Gusb, Rps18 and Ppib, as shown in Table 6: (Sample Adjusted Net MFI/geometric mean Adjusted Net HKG MFI) multiplied by a scaling factor of 100. […]
smiles,measurement,setting,value
"Cc1ccc(C(=O)Nc2ccc(Oc3cc4cnn(C)c4cc3-c3cn[nH]c3)c(F)c2)c(=O)n1-c1ccc(F)cc1 [merestinib, N-(3-fluoro-4-(1-methyl-6-(1H-pyrazol-4-yl)-1H-indazol-5-yloxy)phenyl)-1-(4-fluorophenyl)-6-methyl-2-oxo-1,2-dihydropyridine-3-carboxamide]",Log2 (difference to vehicle control),gene Cdh1,1.01
same,Log2 (difference to vehicle control),"gene Cdh1, listed as Merestinib alone",1.0
same,Log2 (difference to vehicle control),gene Tnfrsf,0.8
same,number of immune genes with no significant change vs vehicle control,of an 80-immune gene panel,79
same,number of immune genes significantly different from vehicle control,"of the 80 immune genes measured, tumors Day 20",1
